pIC50: −log10 of the molar value. “And” between values parts separate entries of the source, which are not always exact repeats. Equal entries are not always repeated. No end group written: not given here.
Key:
[1] = system: primary CD14+ blood monocytes; experiment: Cytokine response by multiplex xMAP, monocytes; assay type: cell-based, human; conditions: 2 µM, 24 h
Protocol: Colorectal adenocarcinoma Caco-2 cell line (ATCC HTB-37) was cultured in complete DMEM/F12 (1:1) medium containing 10% fetal bovine serum (FBS, Gibco) and 1X antibiotic-antimycotic solution (1XAAS, Invitrogen, Waltham, MA, USA). The acute monocytic leukemia THP-1 line (ATCC TIB-202) was cultured in complete RPMI-1640 medium, containing 10% FBS, 1XAAS, and […]. THP-1 cells were differentiated into pro-inflammatory macrophages (Mφ1) with phorbol 12-myristate 13-acetate (Sigma-Aldrich) for 24 h and subsequently polarized with lipopolysaccharide from E. coli (Sigma-Aldrich) and rhIFN-γ (Sigma-Aldrich) for another 48 h according to previously reported protocol. All cells were cultured in a humidified CO2 incubator (5% CO2, 37 °C). Primary peripheral blood mononuclear cells (PBMCs) collected from a healthy donor were purchased from American Type Culture Collection (ATCC PCS-800-011). CD4^+ T-helper and CD8^+ T cytotoxic cells were isolated from PBMCs by magnetic separation with mouse anti-human CD4-PE (clone 13B8.2, Beckman Coulter Diagnostics, Pasadena, CA, USA) and CD8-PE (clone REA734, Miltenyi Biotec, Bergisch Gladbach, Germany), Anti-PE MicroBeads (Miltenyi Biotec), and LS Separation Columns (Miltenyi Biotec). Isolated CD4^+ and CD8^+ cells were expanded separately with Dynabeads™ Human T-Expander CD3/CD28 (Gibco, Waltham, MA, USA) in RPMI-1640 supplemented with 10% FBS, 1XAAS and 100 U/mL rh-IL-2 (Gibco). Regulatory CD4^+ FoxP3^+ T cells (Tregs) were isolated from PBMCs by magnetic separation with CD4^+CD25^+ Regulatory T Cell Isolation Kit, human (Miltenyi Biotec). Primary CD14^+ blood monocytes were isolated from PBMCs by adherence according to standard technique. Monocyte-derived mature dendritic cells (moDCs) were obtained from CD14^+ blood monocytes according to the previously reported protocol. Briefly, blood monocytes were incubated in complete RPMI-1640 medium, containing 10% FBS, 1XAAS, 800 U/mL rhGM-CSF (Sci-Store, Russia, Moscow) and 500 U/mL rhIL-4 (Sci-Store) for 3 days. Fresh complete RPMI-1640 medium with rhGM-CSF and rhIL-4 was added to the culture on day 3. On day 5, fresh complete RPMI-1640 containing 100 U/mL rhTNF-α (Sigma) as well as 800 U/mL rhGM-CSF and 500 U/mL rhIL-4 was added and the culture was incubated for another 4 days until full maturation.
Caco-2 cells were seeded into the wells of a 48-well plate, coated with 0.1% bovine collagen (Sigma-Aldrich) for 24 h, 3 weeks before the experiment with complete DMEM/F12 (1:1) medium renewal every 2–3 days. Monocytes, moDCs, CD4^+ T-helper and CD8^+ T cytotoxic cells, Mφ1, and Regulatory CD4^+ FoxP3^+ T cells were seeded into the wells of 48-well plates in the complete RPMI-1640 medium supplemented with 10% Human AB serum (HABS, Capricorn Scientific, Ebsdorfergrund, Germany) and 1XAAS 24 h prior to the experiment; medium in Caco-2-containing wells was also replaced with the same medium. After 24 h, half of the medium in each well was replaced by fresh complete RPMI-1640 medium with 10% HABS, supplemented with 4 µM of Lc-def for the sample wells or fresh medium alone for the control wells. Cell cultures were kept in CO2-incubator (5% CO2, 37 °C) for another 24 h. Culture supernatants were collected 24 h later and stored at −70 °C degrees less than one month prior to the analytes assessment. […]

[2] = system: clinical isolate of Candida albicans (v47a3); experiment: Antifungal microdilution assay, C. albicans; assay type: cell-based; conditions: 24 h; for inhibition of the growth: C. albicans
Protocol: The clinical isolates of Candida albicans (v47a3), C. krusei (225/2) and C. glabrata (252/2) were collected from patients with human immunodeficiency virus (HIV) infection and provided by G.N. Gabrichevsky Research Institute for Epidemiology and Microbiology (Moscow, Russia). Strains stocks were kept at −70 ℃ in 10% nonfat milk with 10% glycerol.
Antifungal susceptibility tests were performed by the microdilution method using 96-well microplates. Yeast cells in stock were inoculated onto modified YPD (yeast extract 5 g/L, peptone 10 g/L, glucose 10 g/L) agar plates, and incubated for 24 h at 37 ℃. After replating, cells were cultured in modified YPD broth at 37 ℃ to optical density 1.0 at 540 nm. Further, yeast cells in modified YPD broth at concentration of 5 × 10^4 cells/mL were mixed with equal volumes of serial two-fold dilutions of the peptide in water which started at the highest peptide concentration of 200 µM. Final peptide concentrations in the wells were 100, 50, 25, 12.5, 6.25, 3.125, and 1.56 μM. Controls without defensin were also tested. Plates were incubated at 30 ℃ during 24 h. Yeast growth was estimated using inverted microscope as well as by measuring the optical density at 540 nm. Percentage of growth inhibition was defined as: growth inhibition (%) = ((Acontrol − Asample)/Acontrol) × 100%. All of the experiments were performed twice in triplicate. The t-test was performed to study the statistical difference (p-value) between the means of controls and samples with different peptide concentrations. The experiment with lentil Lens culinaris lipid transfer protein Lc-LTP2 was carried out for comparison.

With “Lc-def: defensin from lentil Lens culinaris seeds (UniProt:B3F051), recombinant, overexpressed in Escherichia coli (KTCENLSDSFKGPCIPDGNCNKHCKEKEHLLSGRCRDDFRCWCTRNC; disulfide (positions not given here); ends not checked; also: disulfide bonds present, pairing not given here; UniProt B3F051 28-74, looked up)” the EGF [1] was 11.56 pg/mL, the Eotaxin [1] was <3.23↓ pg/ml and the FGF-2 [1] was 44.46 pg/mL. The FLT-3L [1] was 1.04 pg/mL, the Fractalkine [1] was <23.19↓ pg/ml and the G-CSF [1] was 22.68 pg/mL. It also gave a GM-CSF [1] of 3.49 pg/mL, a GROa [1] of 777.01 pg/mL and an IFNa2 [1] of 21.43 pg/mL. The IFNg [1] was <1.99↓ pg/ml, the IL-1RA [1] was 10.83 pg/mL and the IL-1a [1] was 17.69 pg/mL. For the same substance, the IL-1b [1] was <18.72↓ pg/ml, the IL-2 [1] was 2.62 pg/mL and the IL-3 [1] was <0.48↓ pg/ml. The IL-4 [1] was 0.58 pg/mL, the IL-5 [1] was <0.24↓ pg/ml and the IL-6 [1] was 378 pg/mL and 378.12 pg/mL. The IL-7 [1] was <0.33↓ pg/ml, the IL-8 [1] was 5662 pg/mL and the IL-9 [1] was 1.6 pg/mL. The IL-10 [1] was 8.4 pg/mL, the “IL-12 (p40)” value [1] was 19.56 pg/mL and the “IL-12 (p70)” value [1] was 2.22 pg/mL. It also gave an IL-13 [1] of 15.11 pg/mL, an IL-15 [1] of 3.53 pg/mL and an IL-17A [1] of 2.6 pg/mL. For the same substance, the IL-17E/IL-25 [1] was <20.59↓ pg/ml, the IL-17F [1] was <16.96↓ pg/ml and the IL-18 [1] was 2.04 pg/mL. The IL-22 [1] was 17.03 pg/mL, the IL-27 [1] was 60.93 pg/mL and the IP-10 [1] was 529.41 pg/mL. For the same substance, the M-GSF [1] was 38.29 pg/mL, the MCP-1 [1] was 5545 pg/mL and the MCP-3 [1] was 326 pg/mL and 326.33 pg/mL. For the same substance, the MDC [1] was 995.8 pg/mL, the MIG [1] was 1406 pg/mL and the MIP-1a [1] was 14.98 pg/mL. It also gave an MIP-1b [1] of 42.32 pg/mL, a PDGF-AB/BB [1] of 943.35 pg/mL and an RANTES [1] of 5.41 pg/mL. The TGF-a [1] was 1.79 pg/mL, the TNFa [1] was 27.51 pg/mL and the TNFb [1] was 1.77 pg/mL. The VEGFa [1] was 21.72 pg/mL, the sCD40L [1] was 65.54 pg/mL and the pIC50 ([2]; C. albicans clinical isolate, microdilution, modified YPD, 30 °C, OD540, twice in triplicate, read-out: concentration causing 50% growth inhibition) was 4.30 to 4.60. The “inhibition of the growth” value ([2]; 50 μM peptide) was “approximately 80%” and the “inhibition of the growth” value ([2]; 100 μM peptide) was less than 100%.
